We go through 14 compounds from patent publication US20250277012A1 (Protagonist Therapeutics, Inc., priority 2021, published 2025).

Starred links: 1 amine or outer side, 2 acyl side, 3 side chain; linkers in the order of their positions; H or OH if unused. Positions of bridges follow the written chain, without caps; N, C: chain ends. Non-standard residues stand in square brackets, D forms with d. Residues, ends and D or L forms follow the SMILES beside them. Groups on a side chain read outwards from the residue. ξ: configuration not given here. *: point of attachment. X13 = COC(=O)CCCCCCCCCCCCCCCCC(=O)NCC[N+](C)(C)CC(=O)*; X1 = C[N+](C)(CCNC(=O)CCCCCCCCCCCCCCCCC(=O)O)CC(=O)*; X5 = CCCCCCCCCCCCCCCC(=O)NCC[N+](C)(C)CC(=O)*; C18 diacid = O=C(O)CCCCCCCCCCCCCCCCC(=O)*; Dip = N[C@H](C(=O)O)C(c1ccccc1)c1ccccc1; γGlu = O=C(O)[C@H](CCC(=O)[*:2])N[*:1]; Pro(3S-OH) = O=C(O)[C@H]1NCC[C@@H]1O; ξDip = NC(C(=O)O)C(c1ccccc1)c1ccccc1; Pro(3R-OH) = O=C(O)[C@H]1NCC[C@H]1O; Ethylenediamine = C(CN[*:2])N[*:1]; Palmitoyl = CCCCCCCCCCCCCCCC(=O)*; NMeT = CN[C@H](C(=O)O)[C@@H](C)O; 3Pal = N[C@@H](Cc1cccnc1)C(=O)O; β3hF = N[C@H](CC(=O)O)Cc1ccccc1; Aad = N[C@@H](CCCC(=O)O)C(=O)O; NMeK = CN[C@@H](CCCCN)C(=O)O; Isovaleryl = CC(C)CC(=O)*; hSer = N[C@@H](CCO)C(=O)O; dDap = NC[C@@H](N)C(=O)O; Dap = NC[C@H](N)C(=O)O; AEEA = NCCOCCOCC(=O)O; Ahx = NCCCCCC(=O)O; ξC = NC(CS)C(=O)O

The IC50 is the concentration that gives 50% inhibition.

The first assay deals with T1, ferroportin (Homo sapiens, UniProt Q9NP59).
T1 sequence (Q9NP59 1-571): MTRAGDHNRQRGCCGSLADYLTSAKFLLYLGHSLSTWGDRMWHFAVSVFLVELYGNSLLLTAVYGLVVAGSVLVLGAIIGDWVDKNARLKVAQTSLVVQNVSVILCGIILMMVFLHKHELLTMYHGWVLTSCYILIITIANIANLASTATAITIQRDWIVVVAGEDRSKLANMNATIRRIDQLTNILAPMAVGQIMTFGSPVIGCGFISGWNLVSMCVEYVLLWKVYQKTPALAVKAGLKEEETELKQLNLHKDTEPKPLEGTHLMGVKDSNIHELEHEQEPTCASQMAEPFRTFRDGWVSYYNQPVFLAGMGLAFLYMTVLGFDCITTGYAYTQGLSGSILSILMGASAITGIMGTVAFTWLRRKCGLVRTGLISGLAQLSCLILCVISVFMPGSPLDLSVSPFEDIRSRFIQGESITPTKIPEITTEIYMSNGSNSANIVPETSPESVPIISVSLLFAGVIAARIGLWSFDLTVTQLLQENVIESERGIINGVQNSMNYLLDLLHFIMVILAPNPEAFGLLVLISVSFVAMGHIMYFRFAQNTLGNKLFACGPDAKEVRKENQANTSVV
Description: T47D cell-based ferroportin internalization assay in presence of mouse serum albumin (MSA). Also noted: a human breast carcinoma adherent cell line which endogenously expresses ferroportin; host or cells: T47D. Particulars: T47D internalization assay in presence of mouse serum albumin (MSA); Table 6E. How it is done:
The potency of the peptides in causing ferroportin internalization was evaluated in a T47D cell-based assay. […] In this internalization assay, the potency of the test peptides was evaluated in presence of serum albumin which is the main protein component in the blood. T47D cells were maintained in RPMI media (containing required amount of fetal bovine serum) and regularly sub-cultured. In preparation for the assay, the cells were seeded in 96-well plates at a density of 80-100 k cells per well in 100 ul volume and allowed to rest overnight. […] Sigma, A3139). The test peptide dilution series were allowed to incubate at room temperature for 30 min. Then the media was aspirated from the 96-well cell plate and test peptide dilution series were added. […] The AF647-conjugated detection peptide was previously verified to bind to ferroportin and cause its internalization. The cells were washed again after a 2 hr incubation in preparation for flow cytometry analysis. The Median Fluorescence Intensity (MFI) of the AF647-positive population was measured (after removing dead cells and non-singlets from the analysis). The MFI values were used to generate a dose-response curve and obtain IC50 potencies for the test peptides.
With `CC(C)CC(=O)N[C@@H](CCCC(=O)O)C(=O)N[C@H](C(=O)N[C@@H](Cc1cccnc1)C(=O)N[C@H](C(=O)N1CCC[C@H]1C(=O)N[C@H]1CSSC[C@@H](C(=O)N(C)[C@@H](CCCCNC(=O)COCCOCCNC(=O)COCCOCCNC(=O)[C@H](CN)NC(=O)CCCCCCCCCCCCCCCCC(=O)O)C(=O)N[C@H](CC(=O)N[C@H](CCCCN)C(N)=O)Cc2ccccc2)NC1=O)C(c1ccccc1)c1ccccc1)[C@@H](C)O` [compound 246] (Isovaleryl-[Aad]T[3Pal][Dip]PCC[NMeK]([AEEA-AEEA-Dap-C18 diacid])[β3hF][dK]-NH2; disulfide 6-7), the IC50 was 10 to 100 nM.

Still in this assay, the particulars now being: Table 6E; T47D internalization assay with MSA.
Regarding `CC(C)CC(=O)N[C@@H](CCC(=O)O)C(=O)N1CC[C@@H](O)[C@H]1C(=O)N[C@@H](Cc1c[nH]cn1)C(=O)N[C@H](C(=O)N1CCC[C@H]1C(=O)N[C@H]1CSSC[C@@H](C(=O)N(C)[C@@H](CCCCNC(=O)CCCCCNC(=O)C[N+](C)(C)CCNC(=O)CCCCCCCCCCCCCCCCC(=O)O)C(=O)N[C@H](C(=O)N[C@H](CCCCN)C(N)=O)C(c2ccccc2)c2ccccc2)NC1=O)C(c1ccccc1)c1ccccc1` [compound 191] (Isovaleryl-E[Pro(3R-OH)]H[Dip]PCC[NMeK]([Ahx-X1])[Dip][dK]-NH2; disulfide 6-7), the IC50 lay in the range of 10 to 100 nM.

Consider `CCCCCCCCCCCCCCCC(=O)NCCCCCC(=O)NCCCC[C@@H](C(=O)N[C@H](C(=O)N[C@H](CCCCN)C(N)=O)C(c1ccccc1)c1ccccc1)N(C)C(=O)[C@@H]1CSSC[C@H](NC(=O)[C@@H]2CCCN2C(=O)[C@@H](NC(=O)[C@H](Cc2cnc[nH]2)NC(=O)[C@@H](NC(=O)[C@H](CCO)NC(=O)CC(C)C)[C@@H](C)O)C(c2ccccc2)c2ccccc2)C(=O)N1` [compound 168] (Isovaleryl-[hSer]TH[Dip]PCC[NMeK]([Ahx-Palmitoyl])[Dip][dK]-NH2; disulfide 6-7), for which the IC50 lay in the range of 1 to 10 nM.

Turning to `COC(=O)CC[C@H](NC(=O)CC(C)C)C(=O)N(C)[C@H](C(=O)N[C@@H](Cc1c[nH]cn1)C(=O)N[C@H](C(=O)N1CCC[C@H]1C(=O)N[C@H]1CSSC[C@@H](C(=O)N(C)[C@@H](CCCCNC(=O)CCCCCNC(=O)C[N+](C)(C)CCNC(=O)CCCCCCCCCCCCCCCCC(=O)O)C(=O)N[C@H](C(=O)N(C)[C@@H](CCCCN)C(N)=O)C(c2ccccc2)c2ccccc2)NC1=O)C(c1ccccc1)c1ccccc1)[C@@H](C)O` [compound 153] (Isovaleryl-E(OMe)[NMeT]H[Dip]PCC[NMeK]([Ahx-X1])[Dip][NMeK]-NH2; disulfide 6-7), the IC50 lay within 100 to 500 nM.

With `COC(=O)CC[C@H](NC(=O)CC(C)C)C(=O)N[C@H](C(=O)N[C@@H](Cc1c[nH]cn1)C(=O)N[C@H](C(=O)N1CCC[C@H]1C(=O)N[C@H]1CSSC[C@@H](C(=O)N[C@@H](CCCCNC(=O)CCCCCNC(=O)C[N+](C)(C)CCNC(=O)CCCCCCCCCCCCCCCCC(=O)O)C(=O)N[C@H](C(=O)N[C@H](CCCCN)C(N)=O)C(c2ccccc2)c2ccccc2)NC1=O)C(c1ccccc1)c1ccccc1)[C@@H](C)O` [compound 211] (Isovaleryl-E(OMe)TH[Dip]PCCK([Ahx-X1])[Dip][dK]-NH2; disulfide 6-7), the IC50 lay in the range of 10 to 100 nM.

Consider `CCCCCCCCCCCCCCCC(=O)NCCCCCC(=O)NCCCC[C@@H](C(=O)N[C@H](C(=O)N[C@H](CCCCN)C(N)=O)C(c1ccccc1)c1ccccc1)N(C)C(=O)[C@@H]1CSSC[C@H](NC(=O)[C@@H]2CCCN2C(=O)[C@@H](NC(=O)[C@H](Cc2cnc[nH]2)NC(=O)[C@@H]2CCCN2C(=O)[C@H](CCC(=O)O)NC(=O)CC(C)C)C(c2ccccc2)c2ccccc2)C(=O)N1` [compound 171] (Isovaleryl-EPH[Dip]PCC[NMeK]([Ahx-Palmitoyl])[Dip][dK]-NH2; disulfide 6-7), for which the IC50 was 1 to 10 nM.

As for `CC(C)CC(=O)N[C@@H](CCC(=O)O)C(=O)N(C)[C@H](C(=O)N[C@@H](Cc1c[nH]cn1)C(=O)N[C@H](C(=O)N1CCC[C@H]1C(=O)N[C@H]1CSSC[C@@H](C(=O)N(C)[C@@H](CCCCNC(=O)CCCCCNC(=O)C[N+](C)(C)CCNC(=O)CCCCCCCCCCCCCCCCC(=O)O)C(=O)N[C@H](C(N)=O)C(c2ccccc2)c2ccccc2)NC1=O)C(c1ccccc1)c1ccccc1)[C@@H](C)O` [compound 189] (Isovaleryl-E[NMeT]H[Dip]PCC[NMeK]([Ahx-X1])[Dip]-NH2; disulfide 6-7), the concentration for half-maximal inhibition (IC50) was 100 to 500 nM.

`CCCCCCCCCCCCCCCC(=O)NCCCCCC(=O)NCCCC[C@@H](C(=O)N[C@H](C(=O)N[C@H](CN)C(N)=O)C(c1ccccc1)c1ccccc1)N(C)C(=O)[C@@H]1CSSC[C@H](NC(=O)[C@@H]2CCCN2C(=O)[C@@H](NC(=O)[C@H](Cc2cnc[nH]2)NC(=O)[C@@H](NC(=O)[C@H](CCC(=O)O)NC(=O)CC(C)C)[C@@H](C)O)C(c2ccccc2)c2ccccc2)C(=O)N1` [compound 165] (Isovaleryl-ETH[Dip]PCC[NMeK]([Ahx-Palmitoyl])[Dip][dDap]-NH2; disulfide 6-7): the IC50 lay within 1 to 10 nM.

Turning to `CCCCCCCCCCCCCCCC(=O)N[C@@H](CCC(=O)NCCCC[C@@H](C(=O)N[C@H](CC(=O)N[C@H](CCCCN)C(N)=O)Cc1ccccc1)N(C)C(=O)[C@@H]1CSSC[C@H](NC(=O)[C@@H]2CCCN2C(=O)[C@@H](NC(=O)[C@H](Cc2cnc[nH]2)NC(=O)[C@@H](NC(=O)[C@H](CCC(=O)O)NC(=O)CC(C)C)[C@@H](C)O)C(c2ccccc2)c2ccccc2)C(=O)N1)C(=O)O` [compound 223] (Isovaleryl-ETH[Dip]PCC[NMeK]([γGlu-Palmitoyl])[β3hF][dK]-NH2; disulfide 6-7), the IC50 fell in the range of 1 to 10 nM.

For the compound `CCCCCCCCCCCCCCCC(=O)NCCCCCC(=O)NCCCC[C@@H](C(=O)N[C@H](C(=O)NCCN)C(c1ccccc1)c1ccccc1)N(C)C(=O)C1CSSC[C@H](NC(=O)[C@@H]2CCCN2C(=O)[C@@H](NC(=O)[C@H](Cc2c[nH]cn2)NC(=O)[C@@H](NC(=O)[C@H](CCC(=O)O)NC(=O)CC(C)C)[C@@H](C)O)C(c2ccccc2)c2ccccc2)C(=O)N1` (some centres unmarked) [compound 164] (Isovaleryl-ETH[Dip]PC[ξC][NMeK]([Ahx-Palmitoyl])[Dip]-Ethylenediamine; disulfide 6-7), the IC50 was 1 to 10 nM.

In the case of `CCCCCCCCCCCCCCCC(=O)NCC[N+](C)(C)CC(=O)NCCCC[C@@H](C(=O)N[C@H](C(=O)N(C)[C@@H](CCCCN)C(N)=O)C(c1ccccc1)c1ccccc1)N(C)C(=O)[C@@H]1CSSC[C@H](NC(=O)[C@@H]2CCCN2C(=O)[C@@H](NC(=O)[C@H](Cc2c[nH]cn2)NC(=O)[C@H]([C@@H](C)O)N(C)C(=O)[C@H](CCC(=O)OC)NC(=O)CC(C)C)C(c2ccccc2)c2ccccc2)C(=O)N1` [compound 149] (Isovaleryl-E(OMe)[NMeT]H[Dip]PCC[NMeK](X5)[Dip][NMeK]-NH2; disulfide 6-7), the IC50 was 10 to 100 nM.

On to `COC(=O)CCCCCCCCCCCCCCCCC(=O)NCC[N+](C)(C)CC(=O)NCCCCCC(=O)NCCCC[C@H]1C(=O)NC(C(c2ccccc2)c2ccccc2)C(=O)N[C@@H](C(N)=O)CCCCNC(=O)CC[C@H](NC(=O)CC(C)C)C(=O)N[C@@H]([C@@H](C)O)C(=O)N[C@@H](Cc2c[nH]cn2)C(=O)N[C@@H](C(c2ccccc2)c2ccccc2)C(=O)N2CCC[C@H]2C(=O)N[C@H]2CSSC[C@H](NC2=O)C(=O)N1C` (some centres unmarked) [compound 160] (Isovaleryl-ETH[Dip]PCC[NMeK]([Ahx-X13])[ξDip][dK]-NH2; lactam 1-10; disulfide 6-7), for which the IC50 was in the range of 10 to 100 nM.

As for `CC(C)CC(=O)N[C@@H](CCC(=O)O)C(=O)N1CC[C@H](O)[C@H]1C(=O)N[C@@H](Cc1c[nH]cn1)C(=O)N[C@H](C(=O)N1CCC[C@H]1C(=O)N[C@H]1CSSC[C@@H](C(=O)N(C)[C@@H](CCCCNC(=O)CCCCCNC(=O)C[N+](C)(C)CCNC(=O)CCCCCCCCCCCCCCCCC(=O)O)C(=O)N[C@H](C(=O)N[C@H](CCCCN)C(N)=O)C(c2ccccc2)c2ccccc2)NC1=O)C(c1ccccc1)c1ccccc1` [compound 192] (Isovaleryl-E[Pro(3S-OH)]H[Dip]PCC[NMeK]([Ahx-X1])[Dip][dK]-NH2; disulfide 6-7), the IC50 is 10 to 100 nM.

As for `COC(=O)CC[C@H](NC(=O)CC(C)C)C(=O)N(C)[C@H](C(=O)N[C@@H](Cc1c[nH]cn1)C(=O)N[C@H](C(=O)N1CCC[C@H]1C(=O)N[C@H]1CSSC[C@@H](C(=O)N(C)[C@@H](CCCCNC(=O)C[N+](C)(C)CCNC(=O)CCCCCCCCCCCCCCCCC(=O)O)C(=O)N[C@H](C(N)=O)C(c2ccccc2)c2ccccc2)NC1=O)C(c1ccccc1)c1ccccc1)[C@@H](C)O` [compound 186] (Isovaleryl-E(OMe)[NMeT]H[Dip]PCC[NMeK](X1)[Dip]-NH2; disulfide 6-7), the IC50 lay in the range of 100 to 500 nM.
